Measured values taken from ChEMBL document CHEMBL3045222, “Synthesis of novel benzimidazole derivatives: as potent analgesic agent” (2013).

Columns and labels:
Format in all cases: functional
Rattus norvegicus [1] = experiment: Analgesic activity in Rattus norvegicus (rat) assessed as time taken to withdraw tail in response to heat stress at 50 mg/kg, po after 120 min by tail flick method based analgesiometer analysis (reference value: 5.16 +/-0.31 secs)
Rattus norvegicus [2] = experiment: Analgesic activity in Rattus norvegicus (rat) assessed as time taken to withdraw tail in response to heat stress at 50 mg/kg, po after 90 min by tail flick method based analgesiometer analysis (reference value: 6.00 +/-0.36 secs)
Rattus norvegicus [3] = experiment: Analgesic activity in Rattus norvegicus (rat) assessed as time taken to withdraw tail in response to heat stress at 50 mg/kg, po after 60 min by tail flick method based analgesiometer analysis (reference value: 6.5 +/-0.22 secs)
Rattus norvegicus [4] = experiment: Analgesic activity in Rattus norvegicus (rat) assessed as time taken to withdraw tail in response to heat stress at 50 mg/kg, po after 30 min by tail flick method based analgesiometer analysis (reference value: 5.50 +/-0.43 secs)

Compound	Time (Rattus norvegicus [1]) [s]	Time (Rattus norvegicus [2]) [s]	Time (Rattus norvegicus [3]) [s]	Time (Rattus norvegicus [4]) [s]
COc1ccc2nc(-c3c(O)ccc4ccccc34)n(C)c2c1	6.83	8.5	10.33	10.66
CCCCn1c(-c2c(O)ccc3ccccc23)nc2ccc(OC)cc21	6.66	7.66	9.33	8.66
Cn1c(-c2c(O)ccc3ccccc23)nc2ccc([N+](=O)[O-])cc21	7	6.83	11.5	10.5
CCCCn1c(-c2c(O)ccc3ccccc23)nc2ccc([N+](=O)[O-])cc21	4.83	6	6.5	6.66
Cn1c(-c2c(O)ccc3ccccc23)nc2ccccc21	5.16	6	7	6.5
CCCCn1c(-c2c(O)ccc3ccccc23)nc2ccccc21	6.83	9.66	10.5	10.66
O=C(O)Cc1ccccc1Nc1c(Cl)cccc1Cl [DICLOFENAC]	7	10	11.66	10.83
